According to article PMC4802308, “Integrating computational and chemical biology tools in the discovery of antiangiogenic small molecule ligands of FGF2 derived from endogenous inhibitors” (Scientific Reports, 2016):

How the values were obtained:
FGF2 [1] = target: T1, FGF2 (Homo sapiens, UniProt P09038); assay: Competition with biotinylated recombinant TSP-1 domain (E123CaG1) for binding to FGF2 (DELFIA); conditions: for ability to bind FGF2 in the competition assay (phenylamino-substituted naphthalenes): Fig. 6B; for prevention of FGF2/TSP-1 binding (first screening): 5 μM
T1 construct: purchased R&D Systems, obtained through the NCI-Biological Resources Branch
T1 sequence (P09038 134-288 limits assumed): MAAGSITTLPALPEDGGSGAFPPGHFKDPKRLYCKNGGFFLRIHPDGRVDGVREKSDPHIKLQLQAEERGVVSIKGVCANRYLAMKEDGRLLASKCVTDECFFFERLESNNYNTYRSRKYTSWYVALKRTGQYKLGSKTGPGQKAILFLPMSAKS
Description: Of the identified hits, 23 (Fig. 1 and Suppl. Table S1), made available from the NCI (NIH), were subjected to experimental analysis of FGF2 binding. We used an indirect assay, based on the competition of the tested molecules with the recombinant TSP-1 type III domain for binding to FGF2, an approach previously employed to analyze the FGF2/SM27 binding.
Figure 2 FGF2-binding property of the selected hits, analyzed with an indirect assay, as ability to compete with the TSP-1 fragment E123CaG1 (comprising the type III repeats domain) for FGF2 binding, as described in Methods. Binding of the biotinylated recombinant domain to FGF2 in the presence or absence of each molecule (5 μM). Data are the percentage of control binding, mean and SE of 3 experiments performed in triplicate. *p < 0.05 compared to control (ANOVA followed by Bonferroni test).
DELFIA® Microtitration plates and reagents were from PerkinElmer. Plates were coated overnight at 4 °C with FGF2 (0.1 μg in 40 μl /well PBS). After washing, non-specific binding sites were saturated by a 30 minute incubation with PBS 1% BSA. The biotin-labeled recombinant TSP-1 fragment (10 nM) was added in 40 μl PBS 1% BSA with or without the indicated concentration of small molecules, and incubated for 3 h at room temperature. The plates were washed with PBS 0.1% BSA and incubated for 1 h with 100 μl/well Eu-Labeled Streptavidin 1:1000 at room temperature. After washing, plates were incubated with DELFIA® Enhancement Solution. Time resolved fluorescence was measured using a Victor[3] multilabel plate reader (PerkinElmer).

FGF2 [2] = target: T2, FGF2 (Homo sapiens, UniProt P09038, A3E/C211S/C229S/S5E); assay: NMR titration (1H-15N HSQC) of 15N-labeled FGF2; assay type: binding; conditions: pH 5.5, 25 °C
T2 construct: purchased ASLA (Riga, Latvia)
T2 sequence (P09038 with tags, fused parts or gaps isoform P09038-2 C78S/C96S limits assumed): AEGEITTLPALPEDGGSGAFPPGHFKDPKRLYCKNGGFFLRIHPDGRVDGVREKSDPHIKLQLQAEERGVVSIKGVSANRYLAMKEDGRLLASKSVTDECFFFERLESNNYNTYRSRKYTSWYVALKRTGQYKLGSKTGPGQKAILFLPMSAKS
Description: In order to investigate whether the functionalized phenylamino-substituted naphthalenes maintained the ability of TSP-1 and SM27 to target the heparin interaction site of FGF2[16][21], interaction studies between SM.1–31 or SM.1–34 (showing the highest activity) and FGF2 were performed by NMR. Each SM was titrated into a solution of ^15N-enriched FGF2 protein and a series of 2D ^1H^15N-HSQC experiments were recorded to follow the protein changes induced by the ligand. […] Residues showing the highest perturbations are Arg129 and Lys144, as previously observed for SM27, pointing to similar interactions that likely involve inhibitors SO3 groups.
NMR samples contained 0.57 mM ^15N-labeled FGF2, dissolved in a buffer containing 50 mM potassium phosphate, 2 mM NaN3, and 10 mM deuterated DTT in 90% H2O/10% D2O, pH 5.5. For the identification of the binding region, SM.1–34 and SM.1–31 were incrementally added to protein solutions up to SM:FGF2 stoichiometric ratio of 3. NMR data were collected on a Bruker DMX 500 MHz spectrometer at 25 °C. 2D ^1H-^15N HSQC spectra were recorded with a sweep width of 13 ppm (^1H) and 40 ppm (^15N). 1k × 128 data points were used in proton and nitrogen dimensions, respectively. Data, acquired and processed using Topspin (Bruker Biospin), were apodized with a squared sinebell shifted by 90° and polynomial baseline correction. […]

BAEC = assay: FGF2-induced endothelial cell proliferation assay; assay type: cell-based, Bovine; conditions: FGF2 5 ng/ml, 72 h
Description: (§1) Figure 4 Biological activity of the selected hits. (A) Endothelial cell proliferation. BAEC were exposed to FGF2 (5 ng/ml) with increasing concentrations of molecules (3–80 μM). After 72 h, cells were stained and proliferation measured as absorbance. Data are the percentage of control proliferation (in absence of molecules), mean of value from 2 experiments performed in triplicate. (B–D) Aortic ring assay. Sections of murine aortas were embedded in Matrigel, in the presence of FGF2 (30 ng/ml) and the indicated small molecule. The formation of capillary structures sprouting from the rings was analyzed after 7 and 11 days as described in Methods, and the angiogenic response expressed as area covered by the sprouting structures (arbitrary units, mean and SE, n ≥ 6). (B) Antiangiogenic activity of the small molecules (100 μM). (C) Examples of time-dependent and dose-dependent effect of two compounds (SM.2–20 and SM.2–23), tested at 100 (diamond), 50 (circle) and 25 μM (triangle) compared to control (black squares). (D) Representative pictures of sprouting from control and SM.2–23 treated aortic sections. […] (E) Angiogenic response is evaluated 4 days later, and expressed as number of vessels entering the sponge (mean and SD). […]
BAEC (2500 cells/well) were plated in 96-well plates in DMEM 1.5% FCS. […] Plates were then stained with crystal violet or MTS and analyzed as described.

FGF2 mitogenic activity = tested on: FGF2 mitogenic activity; set-up: method as in PMID 12676958; conditions: read-out: IC50, inhibition of FGF2 mitogenic activity; cited from earlier work
[3] = tested on: FGF2-induced angiogenesis; assay: Chorioallantoic membrane (CAM) assay; assay type: in vivo, White Leghorn chicken; conditions: FGF2 200 ng, compound 0.5 μg
Description: as §1, with “μM).” for “μM). (C) Examples of time-dependent and dose-dependent effect of two compounds (SM.2–20 and SM.2–23), tested at 100 (diamond), 50 (circle) and 25 μM (triangle) compared to control (black squares). (D) Representative pictures of sprouting from control and SM.2–23 treated aortic sections.”
Fertilized White Leghorn chicken eggs were incubated at 37 °C at constant humidity. […] At day 12, CAMs were photographed in ovo under a stereomicroscope (Olympus), and blood vessels entering the sponge within the focal plane of the CAM were counted by two observers in double blind.

FGF2 [4] = target: T1, FGF2; assay: Competition with biotinylated recombinant TSP-1 domain (E123CaG1) for binding to FGF2 (DELFIA); conditions: for IC50: mean ± SE of 3 experiments; for fold more active than the initial query SM27 (competition IC50): vs SM27
FGF2 [5] = target: T1, FGF2; assay: SPR direct binding to sensorchip-immobilized FGF2; conditions: single site model, one experiment representative of two, read-out: Kd (dissociation constant) of FGF2/compound interaction
Description: SPR measurements were performed on a BIAcore X100 instrument (GE-Healthcare, WI). FGF2 was immobilized on a CM5 sensorchip (GE-Healthcare) as described, allowing the immobilization of 7,365 resonance units (RU) (410 fmol/mm^2 of FGF-2).
Suppl. Table S2. Determination of the affinity (Kd) of the FGF2/compound interactions by
Binding parameters were calculated by the non-linear curve fitting software package BIAevaluation
3.2 using a single site model with correction for mass transfer. Dissociation constant (Kd) values
were derived from the dissociation rate/association ratio. Only sensorgrams whose fitting gave
values of X2 lower than 10 were used {Khalifa, 2001 #213}.

[6] = tested on: FGF2-induced vessels sprouting, murine aortic rings; assay: Aortic rings assay (FGF2-induced vessels sprouting, 3D Matrigel); set-up: species or system C57BL/6 mice; conditions: FGF2 30 ng/ml, small molecules 100 μM
Description: Figure 4 Biological activity of the selected hits. (A) Endothelial cell proliferation. BAEC were exposed to FGF2 (5 ng/ml) with increasing concentrations of molecules (3–80 μM). After 72 h, cells were stained and proliferation measured as absorbance. Data are the percentage of control proliferation (in absence of molecules), mean of value from 2 experiments performed in triplicate. (B–D) Aortic ring assay. Sections of murine aortas were embedded in Matrigel, in the presence of FGF2 (30 ng/ml) and the indicated small molecule. The formation of capillary structures sprouting from the rings was analyzed after 7 and 11 days as described in Methods, and the angiogenic response expressed as area covered by the sprouting structures (arbitrary units, mean and SE, n ≥ 6). (B) Antiangiogenic activity of the small molecules (100 μM). (C) Examples of time-dependent and dose-dependent effect of two compounds (SM.2–20 and SM.2–23), tested at 100 (diamond), 50 (circle) and 25 μM (triangle) compared to control (black squares). (D) Representative pictures of sprouting from control and SM.2–23 treated aortic sections. Original magnification, 20x. (E,F) Chorioallantoic membrane assay. FGF2 (200 ng) was administered in the absence or presence of the indicated compound (0.5 μg) on day 8 (n = 10). (E) Angiogenic response is evaluated 4 days later, and expressed as number of vessels entering the sponge (mean and SD). (F) Representative pictures are shown. Original magnification, 50x.
Thoracic aortas were removed from mice, cleaned of perivascular adipose tissue and cut into 1 mm segments. Matrigel (75 μl, BD Biosciences) was added to 96 well plates, and allowed to gellify at 37 °C for 30 min. Aortic sections were added to the wells, and covered with a second layer of Matrigel and DMEM 5% FCS containing FGF2 (30 ng/ml) and the indicated concentration of the compounds. The formation of capillary structures sprouting from the rings was analyzed after 4, 7 and 11 days with an inverted-phase contrast microscope (IX70; Olympus). Images were analyzed with ImageJ 1.48, and the angiogenic response expressed as area covered by the sprouting structures (arbitrary units), substracted the area of the aortic section.

SMILES: O=S(=O)([O-])c1cc(S(=O)(=O)[O-])c2ccc(Nc3ccccc3)cc2c1O.[Na+].[Na+] [SM.1–34, sodium 4-hydroxy-6-(phenylamino)naphthalene-1,3-disulfonate]
- ability to bind FGF2 in the competition assay (phenylamino-substituted naphthalenes) (FGF2 [1]): most active
- affinity for FGF2 indicated by NMR titration (FGF2 [2]): high micromolar range

SMILES: O=S(=O)([O-])c1cccc2cc(Nc3ccccc3)ccc12.[Na+] [SM.1–31, sodium 6-(phenylamino)naphthalene-1-sulfonate]
- ability to bind FGF2 in the competition assay (phenylamino-substituted naphthalenes) (FGF2 [1]): most active
- inhibition of FGF2-induced endothelial cell proliferation (antiproliferative activity) (BAEC): increased activity
- affinity for FGF2 indicated by NMR titration (FGF2 [2]): high micromolar range

SMILES: O=C(Nc1ccc2cc(S(=O)(=O)O)cc(S(=O)(=O)O)c2c1)Nc1ccc2cc(S(=O)(=O)O)cc(S(=O)(=O)O)c2c1 [SM.2–11, 7,7'-(carbonylbis(azanediyl))bis(naphthalene-1,3-disulfonic acid)]
- prevention of FGF2/TSP-1 binding (first screening) (FGF2 [1]): lost

SMILES: Nc1cccc2cc(S(=O)(=O)O)ccc12 [5-amino-2-naphthalenesulfonate]
- IC50 (FGF2 mitogenic activity): 265000 nM

SMILES: O=C(Nc1ccc2c(O)c(/N=N/c3ccccc3)c(S(=O)(=O)O)cc2c1)Nc1ccc2c(O)c(/N=N/c3ccccc3)c(S(=O)(=O)O)cc2c1 [SM.2–12, 4-hydroxy-7-(3-(5-hydroxy-6-((E)-phenyldiazenyl)-7-sulfonaphthalen-2-yl)ureido)-3-((E)-phenyldiazenyl)naphthalene-2-sulfonic acid]
- prevention of FGF2/TSP-1 binding (first screening) (FGF2 [1]): reduced activity

SMILES: Oc1cccc2ccc(Nc3ccccc3)cc12 [SM.1–33, 8-hydroxy-N-phenylanaphthalen-2-aminium chloride]
- ability to bind FGF2 in the competition assay (phenylamino-substituted naphthalenes) (FGF2 [1]): inactive
- inhibition of FGF2-induced endothelial cell proliferation (antiproliferative activity) (BAEC): significant loss of activity

SMILES: Nc1cccc(/N=N/c2c(S(=O)(=O)O)cc3cc(NC(=O)Nc4ccc5c(O)c(/N=N/c6cccc(N)c6)c(S(=O)(=O)O)cc5c4)ccc3c2O)c1 [SM.2–18, 3-((E)-(3-aminophenyl)diazenyl)-7-(3-(6-((E)-(3-aminophenyl)diazenyl)-5-hydroxy-7-sulfonaphthalen-2-yl)ureido)-4-hydroxynaphthalene-2-sulfonic acid]
- inhibition of FGF2-induced angiogenesis in the CAM assay [3]: active
- IC50 (FGF2 [4]): 610 ± 60 nM
- fold more active than the initial query SM27 (competition IC50) (FGF2 [4]): 6–11 fold

SMILES: Cc1ccc(C)c(/N=N/c2c(S(=O)(=O)O)cc3cc(NC(=O)Nc4ccc5c(O)c(/N=N/c6ccc7cc(S(=O)(=O)O)ccc7c6)c(S(=O)(=O)O)cc5c4)ccc3c2O)c1 [SM.2–24, 3-((E)-(2,5-dimethylphenyl)diazenyl)-4-hydroxy-7-(3-(5-hydroxy-7-sulfo-6-((E)-(6-sulfonaphthalen-2-yl)diazenyl)naphthalen-2-yl)ureido)naphthalene-2-sulfonic acid]
- Kd (FGF2 [5]): 111 nM
- inhibition of FGF2-induced vessels sprouting [6]: significantly inhibited
- inhibition of FGF2-induced angiogenesis in the CAM assay [3]: active
- IC50 (FGF2 [4]): 460 ± 100 nM
- fold more active than the initial query SM27 (competition IC50) (FGF2 [4]): 6–11 fold
